Measured values from ChEMBL document CHEMBL1201862, “PubChem BioAssay data set” (2004).
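Values below derive from 48-hour exposures of cells grown in 96-well plates, with endpoints linearly interpolated between the two concentrations bracketing the appropriate inhibition level. GI50 = concentration required for 50% inhibition of growth.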 Calls of active or inactive are those of the source. Cut-off read from the data, not from the text of the source: active = GI50 up to about 1.1 µM and inactive = higher.

Experiments:
Assay in all cases: NCI anticancer screen, dose series, 48 h
HCC 2998 = test system: HCC 2998
CAKI-1 = test system: CAKI-1
MDA-N = test system: MDA-N
IGROV-1 = test system: IGROV-1
HL-60 = test system: HL-60
Malme-3M = test system: Malme-3M
NCI-H460 = test system: NCI-H460
UO-31 = test system: UO-31
SF-539 = test system: SF-539
NCI-H226 = test system: NCI-H226
NCI-H23 = test system: NCI-H23
SK-OV-3 = test system: SK-OV-3
HOP-62 = test system: HOP-62
LOX IMVI = test system: LOX IMVI
SF-268 = test system: SF-268
RPMI-8226 = test system: RPMI-8226
DU-145 = test system: DU-145
KM12 = test system: KM12
UACC-257 = test system: UACC-257
NCI-H522 = test system: NCI-H522

Compound | GI50 (HCC 2998) | GI50 (CAKI-1) | GI50 (MDA-N) | GI50 (IGROV-1) | GI50 (HL-60) | GI50 (Malme-3M) | GI50 (NCI-H460) | GI50 (UO-31) | GI50 (SF-539) | GI50 (NCI-H226) | GI50 (NCI-H23) | GI50 (SK-OV-3) | GI50 (HOP-62) | GI50 (LOX IMVI) | GI50 (SF-268) | GI50 (RPMI-8226) | GI50 (DU-145) | GI50 (KM12) | GI50 (UACC-257) | GI50 (NCI-H522)
O=C1/C(=C/c2cccc3ccccc23)CCc2ccc([N+](=O)[O-])cc21 | 83.8 µM (inactive) | 24.8 µM (inactive) | 8.81 µM (inactive) | 31.4 µM (inactive) | 8.83 µM (inactive) | 17.3 µM (inactive) | 29 µM (inactive) | 33.7 µM (inactive) | 21.5 µM (inactive) | 27.6 µM (inactive) | 67.5 µM (inactive) | 21.6 µM (inactive) | 28.2 µM (inactive) | 26.9 µM (inactive) | 33.7 µM (inactive) | 11.8 µM (inactive) | 51.6 µM (inactive) | 6.32 µM (inactive) | – | –
CC1(CC(=O)OC(C#C[Si](C)(C)C)Cc2ccccc2)OCCO1 (configuration not stated) | – | > 100 µM (inactive) | > 100 µM (inactive) | > 100 µM (inactive) | > 100 µM (inactive) | > 100 µM (inactive) | – | > 100 µM (inactive) | > 100 µM (inactive) | > 100 µM (inactive) | > 100 µM (inactive) | > 100 µM (inactive) | > 100 µM (inactive) | > 100 µM (inactive) | > 100 µM (inactive) | – | > 100 µM (inactive) | > 100 µM (inactive) | > 100 µM (inactive) | > 100 µM (inactive)
O=[N+]([O-])c1ccc(NN=C2CN3CCN(C2)c2ccccc23)c([N+](=O)[O-])c1 | > 100 µM (inactive) | > 100 µM (inactive) | > 100 µM (inactive) | 97.3 µM (inactive) | – | > 100 µM (inactive) | > 100 µM (inactive) | > 100 µM (inactive) | > 100 µM (inactive) | – | > 100 µM (inactive) | > 100 µM (inactive) | > 100 µM (inactive) | > 100 µM (inactive) | > 100 µM (inactive) | – | > 100 µM (inactive) | > 100 µM (inactive) | > 100 µM (inactive) | > 100 µM (inactive)
CN(C)P(=O)(Oc1occc1C(O)Cc1ccccc1)N(C)C (configuration not stated) | > 100 µM (inactive) | > 100 µM (inactive) | > 100 µM (inactive) | – | – | > 100 µM (inactive) | > 100 µM (inactive) | > 100 µM (inactive) | > 100 µM (inactive) | > 100 µM (inactive) | > 100 µM (inactive) | > 100 µM (inactive) | > 100 µM (inactive) | > 100 µM (inactive) | > 100 µM (inactive) | > 100 µM (inactive) | – | > 100 µM (inactive) | > 100 µM (inactive) | > 100 µM (inactive)
COc1cc(C2SC(C)C(=O)N2c2ccc(-c3csc(NS(=O)(=O)c4ccc(Cl)c(OC)c4)n3)cc2)ccc1O (configuration not stated) | – | > 100 µM (inactive) | 41.2 µM (inactive) | 44.9 µM (inactive) | 48.2 µM (inactive) | 27.8 µM (inactive) | > 100 µM (inactive) | > 100 µM (inactive) | 32.7 µM (inactive) | > 100 µM (inactive) | 22.6 µM (inactive) | > 100 µM (inactive) | > 100 µM (inactive) | 31.3 µM (inactive) | 29.4 µM (inactive) | – | > 100 µM (inactive) | 22.5 µM (inactive) | 85.7 µM (inactive) | 21.7 µM (inactive)
CC(=O)Oc1ccc2c(c1)Oc1cc(C(C)=O)ccc1C21OC(=O)c2ccccc21 (configuration not stated) | > 100 µM (inactive) | > 100 µM (inactive) | > 100 µM (inactive) | 85.5 µM (inactive) | 44.6 µM (inactive) | > 100 µM (inactive) | > 100 µM (inactive) | 85.5 µM (inactive) | – | – | > 100 µM (inactive) | 94.8 µM (inactive) | 64.6 µM (inactive) | > 100 µM (inactive) | 1.8 µM (inactive) | 30.2 µM (inactive) | > 100 µM (inactive) | > 100 µM (inactive) | > 100 µM (inactive) | > 100 µM (inactive)
COc1ccc2c3c1O[C@H]1C(OC)C=CC4C(C2)N(Cc2cccs2)CCC341 (some centres not stated) | > 100 µM (inactive) | > 100 µM (inactive) | 60 µM (inactive) | > 100 µM (inactive) | 24 µM (inactive) | > 100 µM (inactive) | > 100 µM (inactive) | > 100 µM (inactive) | – | – | 38.8 µM (inactive) | > 100 µM (inactive) | > 100 µM (inactive) | > 100 µM (inactive) | > 100 µM (inactive) | 62.1 µM (inactive) | – | – | 44.4 µM (inactive) | > 100 µM (inactive)
CCCCSC1=N/C(=C\c2ccc(N(C)C)cc2)C(Cl)=N1 | > 100 µM (inactive) | > 100 µM (inactive) | > 100 µM (inactive) | > 100 µM (inactive) | – | > 100 µM (inactive) | > 100 µM (inactive) | > 100 µM (inactive) | > 100 µM (inactive) | > 100 µM (inactive) | > 100 µM (inactive) | > 100 µM (inactive) | > 100 µM (inactive) | > 100 µM (inactive) | > 100 µM (inactive) | > 100 µM (inactive) | > 100 µM (inactive) | > 100 µM (inactive) | > 100 µM (inactive) | > 100 µM (inactive)
O=[N+]([O-])C(=C(N1CCCCC1)N1CCCCC1)/C(Cl)=C(\Cl)[N+](=O)[O-] | 22.1 µM (inactive) | 1.19 µM (inactive) | 5.94 µM (inactive) | 1.72 µM (inactive) | – | 2.37 µM (inactive) | 22.5 µM (inactive) | 3.54 µM (inactive) | 9.1 µM (inactive) | 20.6 µM (inactive) | 5.6 µM (inactive) | 23.2 µM (inactive) | 15.6 µM (inactive) | 2.32 µM (inactive) | 12.1 µM (inactive) | 2.18 µM (inactive) | 2.88 µM (inactive) | 19.4 µM (inactive) | 7.71 µM (inactive) | 1.76 µM (inactive)
O=P(O)(O)C(N=C(Nc1ccccc1)Nc1ccccc1)P(=O)(O)O | > 100 µM (inactive) | > 100 µM (inactive) | > 100 µM (inactive) | > 100 µM (inactive) | – | > 100 µM (inactive) | > 100 µM (inactive) | > 100 µM (inactive) | > 100 µM (inactive) | > 100 µM (inactive) | > 100 µM (inactive) | > 100 µM (inactive) | > 100 µM (inactive) | > 100 µM (inactive) | > 100 µM (inactive) | – | > 100 µM (inactive) | > 100 µM (inactive) | > 100 µM (inactive) | > 100 µM (inactive)
CCN(C(=O)N[C@@H](Cc1ccccc1)C(=O)N[C@@H](CC(C)C)C(=O)NC)c1ccccc1 | > 100 µM (inactive) | > 100 µM (inactive) | > 100 µM (inactive) | > 100 µM (inactive) | – | > 100 µM (inactive) | > 100 µM (inactive) | > 100 µM (inactive) | > 100 µM (inactive) | > 100 µM (inactive) | > 100 µM (inactive) | > 100 µM (inactive) | > 100 µM (inactive) | > 100 µM (inactive) | – | 77.1 µM (inactive) | > 100 µM (inactive) | > 100 µM (inactive) | > 100 µM (inactive) | > 100 µM (inactive)
COC(=O)[C@H]1CO[C@@H](C(C)(C)C)N1C(=O)N1C=CC(=O)C[C@@H]1C | – | > 100 µM (inactive) | > 100 µM (inactive) | > 100 µM (inactive) | > 100 µM (inactive) | > 100 µM (inactive) | – | > 100 µM (inactive) | – | > 100 µM (inactive) | > 100 µM (inactive) | > 100 µM (inactive) | > 100 µM (inactive) | > 100 µM (inactive) | > 100 µM (inactive) | > 100 µM (inactive) | > 100 µM (inactive) | > 100 µM (inactive) | > 100 µM (inactive) | > 100 µM (inactive)
COc1cc(C2c3cc4c(cc3[C@@H](Nc3ccc(N)cc3)C3COC(=O)[C@H]23)OCO4)cc(OC)c1O (some centres not stated) | 3.27 µM (inactive) | 0.446 µM (active) | 3.93 µM (inactive) | 3.35 µM (inactive) | – | 2.13 µM (inactive) | 0.0557 µM (active) | 1.34 µM (inactive) | 1.07 µM (active) | 1.19 µM (inactive) | 0.828 µM (active) | 1.51 µM (inactive) | 0.363 µM (active) | 0.395 µM (active) | 1.63 µM (inactive) | 0.425 µM (active) | 0.121 µM (active) | 3.43 µM (inactive) | 7.19 µM (inactive) | 2.22 µM (inactive)
O=C1C(c2c(O)[nH]c3ccc(Cl)cc23)=Nc2ccccc21 | – | 3.83 µM (inactive) | 6.38 µM (inactive) | 0.352 µM (active) | 28.8 µM (inactive) | 5.68 µM (inactive) | 12.1 µM (inactive) | – | 4.65 µM (inactive) | 6.05 µM (inactive) | 9.12 µM (inactive) | 3.08 µM (inactive) | 5.58 µM (inactive) | 3.66 µM (inactive) | 5.36 µM (inactive) | 5.09 µM (inactive) | 2.81 µM (inactive) | 3.08 µM (inactive) | > 53.5 µM (inactive) | 10.6 µM (inactive)
c1ccc2c(c1)nc1n2CCNC1 | > 100 µM (inactive) | > 100 µM (inactive) | > 100 µM (inactive) | > 100 µM (inactive) | > 100 µM (inactive) | – | > 100 µM (inactive) | > 100 µM (inactive) | > 100 µM (inactive) | > 100 µM (inactive) | > 100 µM (inactive) | > 100 µM (inactive) | > 100 µM (inactive) | > 100 µM (inactive) | > 100 µM (inactive) | > 100 µM (inactive) | > 100 µM (inactive) | > 100 µM (inactive) | > 100 µM (inactive) | –
